Experimental data published in US20250281518A1, “METHODS AND AGENTS FOR PREVENTING SKELETAL AGING, OSTEOPOROSIS AND OBESITY” (The Regents of the University of California, priority 2022, published 2025).
Entries after “also recorded” stand apart in the source; their conditions may differ.

Experiments:
[1] = Stability of water solutions; assay type: physicochemical; details: water solution
OVX C57BL/6J female mice = test: Ovariectomy (OVX)-induced osteoporosis and obesity in mice, dosing in drinking water over two months; assay type: in vivo, mouse
Source text: Aging-related bone loss and osteoporosis frequently occur in women after menopause. To mimic the pathogenesis of osteoporotic bone loss, we performed ovariectomy (OVX) on female mice to induce estrogen deficiency. […] Mice weight on average 20 g at the start of the experiment. […] Dosing was over two months.
(§1) For the mice on high fat diets, the starting animal weights were about 25 grams.
(§2) We monitored mouse body weight, food and water consumption on a weekly basis for two months. Nuclear magnetic resonance scanner was used to assess lean mass and fat mass composition. Serum chemistries were analyzed in UCLA DLAM facility. Liver and adipose tissues were harvested for histology and histomorphometric analyses. Femur, tibia and mandible were subjected to micro-CT scanning and reconstruction. […] One-way ANOVA was performed to quantify differences among all the groups.

HFD-fed mice = test: High fat diet (HFD)-induced obesity and bone loss in mice, dosing in drinking water for three months; assay type: in vivo, mouse
Source text: as §1
as §2, with “Mice were given a regular diet or high fat diet (HFD) for three months beginning at age of 8 weeks. […] Body” for “We monitored mouse body”, “consumption were monitored” for “consumption”, “three” for “two”, “composition.” for “composition. Serum chemistries were analyzed in UCLA DLAM facility.”

Solubility in water = assay type: physicochemical
aged C57BL/6J male mice = test: Bone and adipose metabolism in aged mice, dosing in drinking water from 18 months of age for six months; assay type: in vivo, mouse; details: for body weight: after six months treatment
Method: as §1
Mice weighed 40 g on average at the start of the study. Body weight, food and water consumption were monitored on a weekly basis. Nuclear magnetic resonance scanner was used to assess lean mass and fat mass composition. Liver and adipose tissues were harvested for histology and histomorphometric analyses. Femur, tibia and mandible were subjected to μCT scanning and reconstruction. […] One-way ANOVA was performed to quantify differences among all the groups.

[2] = 100 mg/kg/day alone, compared with 500 mg/kg/day and combination groups

| Compound | stability of the water solutions [1] | weight and size of liver (OVX C57BL/6J female mice; 100 mg/kg/day alone, OVX mice) | OVX-induced body weight gain (OVX C57BL/6J female mice; 100 mg/kg/day alone, drinking water, two months) | OVX-induced mouse body weight gain (OVX C57BL/6J female mice; 500 mg/kg/day alone, drinking water, two months) | fat mass (nuclear magnetic resonance) (HFD-fed mice; 100 mg/kg/day alone, HFD) | weight gains induced by HFD (HFD-fed mice; low concentration (100 mg/kg/day) alone, three months) | pgWAT weight gain induced by HFD (HFD-fed mice; low concentration alone) | solubility in water (Solubility in water) | body weight (aged C57BL/6J male mice; 100 mg/kg/day alone, compared with control) | fat mass and lean mass (nuclear magnetic resonance) (aged C57BL/6J male mice; [2]) | weight and size of liver (aged C57BL/6J male mice; [2]) | weight of pgWAT (aged C57BL/6J male mice; [2]) | body weight (aged C57BL/6J male mice; 500 mg/kg/day alone) | weight and size of liver (aged C57BL/6J male mice; 500 mg/kg/day alone, comparison is worded from the side of control and 100 mg/kg/day groups) |
| --- | --- | --- | --- | --- | --- | --- | --- | --- | --- | --- | --- | --- | --- | --- |
| NC(=O)c1ccc[n+]([C@@H]2O[C@H](COP(=O)([O-])O)[C@@H](O)[C@H]2O)c1 [NMN, 3-carbamoyl-1-[5-O-(hydroxyphosphinato)-β-D-ribofuranosyl]pyridinium] | highly stable | did not significantly affect | ineffective; also recorded: did not significantly inhibit | significantly inhibited | could not affect | did not significantly reduce | did not significantly inhibit | dissolve well in water | increased at a similar rate | significantly higher fat mass and lower lean mass | significantly higher | significantly higher | decreased significantly | significantly higher in control, 100 mg/kg/day α-KG, and 100 mg/kg/day NMN groups compared with |
| alpha-ketoglutarate [α-KG] | highly stable |  |  |  |  |  |  |  |  |  |  |  |  |  |
